Laboratory results reported in patent US20220233512A1, “INHIBITING AN IMMUNE RESPONSE MEDIATED BY ONE OR MORE OF TLR2, RAGE, CCR5, CXCR4 AND CD4” (priority 2020, published 2022).

Biological target: T1, mu opiate receptor (MOR) (Rattus norvegicus, UniProt P33535)
T1 construct: from tissue; host or cells: striatum (membrane preparation)
Experiment: MOR agonist activity using [35S]GTPgS binding assay in striatal membranes
Type: biochemical
Method: To assess the mu opiate receptor (MOR) agonist activity of positive compounds from the FLNA screening, compounds were tested in a [^35S]GTPgS binding assay using striatal membranes. […] This assay measures a functional consequence of receptor occupancy at one of the earliest receptor-mediated events. The assay permits for traditional pharmacological parameters of potency, efficacy and antagonist affinity, with the advantage that agonist measures are not subjected to amplification or other modulation that may occur when analyzing parameters further downstream of the receptor.
Thus, striatal tissue was homogenized in 10 volumes of ice cold 25 mM HEPES buffer, pH 7.4, which contained 1 mM EGTA, 100 mM sucrose, 50 mg/ml leupeptin, 0.04 mM PMSF, 2 mg/ml soybean trypsin inhibitor and 0.2% 2-mercaptoethanol. The homogenates were centrifuged at 800×g for 5 minutes and the supernatants were centrifuged at 49,000×g for 20 minutes. The resulting pellets were suspended in 10 volume of reaction buffer, which contained 25 mM HEPES, pH 7.5, 100 mM NaCl, 50 mg/ml leupeptin, 2 mg/ml soybean trypsin inhibitor, 0.04 mM PMSF and 0.02% […].
The resultant striatal membrane preparation (200 mg) was admixed and maintained (incubated) at 30° C. for 5 minutes in reaction buffer as above that additionally contained 1 mM MgCl2 and 0.5 nM [^35S]GTPgS (0.1 mCi/assay, PerkinElmer Life and Analytical Sciences) in a total volume of 250 ml and continued for 5 minutes in the absence or presence of 0.1-10 mM of an assayed compound of interest. The reaction was terminated by dilution with 750 ml of ice-cold reaction buffer that contained 20 mM MgCl2 and 1 mM EGTA and immediate centrifugation at 16,000×g for 5 minutes.
The resulting pellet was solubilized by sonicating for 10 seconds in 0.5 ml of immunoprecipitation buffer containing 0.5% digitonin, 0.2% sodium cholate and 0.5% NP-40. Normal rabbit serum (1 ml) was added to 1 ml of lysate and incubated at 25° C. for 30 minutes. Nonspecific immune complexes were removed by incubation with 25 ml of protein A/G-conjugated agarose beads at 25° C. for 30 minutes followed by centrifugation at 5,000×g at 4° C. for 5 minutes. The supernatant was divided and separately incubated at 25° C. for 30 minutes with antibodies raised against Gao proteins (1:1,000 dilutions).
The immunocomplexes so formed were collected by incubation at 25° C. for 30 minutes with 40 ml of agarose-conjugated protein A/G beads and centrifugation at 5,000×g at 4° C. for 5 minutes. The pellet was washed and suspended in buffer containing 50 mM Tris-HCl, pH 8.0, and 1% NP-40. The radioactivity in the suspension was determined by liquid scintillation spectrometry. […] DAMGO (1 or 10 mM) was used as a positive control.

[1] = 0.1 μM compound as agonist, Series C-1 table
[2] = 1 μM compound as agonist, Series C-1 table
[3] = 0.1 μM compound as agonist, Series C-2 table
[4] = 1 μM compound as agonist, Series C-2 table

T1 sequence (P33535 whole entry): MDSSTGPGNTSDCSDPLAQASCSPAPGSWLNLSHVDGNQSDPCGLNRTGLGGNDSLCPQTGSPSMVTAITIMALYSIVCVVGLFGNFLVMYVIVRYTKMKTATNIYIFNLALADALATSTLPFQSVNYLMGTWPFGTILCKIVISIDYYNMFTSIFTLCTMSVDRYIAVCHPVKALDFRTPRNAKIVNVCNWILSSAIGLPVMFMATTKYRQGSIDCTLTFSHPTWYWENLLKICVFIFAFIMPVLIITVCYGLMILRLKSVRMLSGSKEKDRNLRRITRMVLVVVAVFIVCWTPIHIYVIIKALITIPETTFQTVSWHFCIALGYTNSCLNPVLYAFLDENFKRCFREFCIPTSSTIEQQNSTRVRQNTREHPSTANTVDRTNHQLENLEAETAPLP

SMILES	MOR agonist activity ([35S]GTPgS binding to Gao) [1]	MOR agonist activity ([35S]GTPgS binding to Gao) (1 μM + BFNA, Series C-1 table)	MOR agonist activity ([35S]GTPgS binding to Gao) [2]	MOR agonist activity ([35S]GTPgS binding to Gao) [3]	MOR agonist activity ([35S]GTPgS binding to Gao) (1 μM + BFNA, Series C-2 table)	MOR agonist activity ([35S]GTPgS binding to Gao) [4]
COc1ccc(S(=O)(=O)N2CCC3(CC2)OCCN3S(=O)(=O)c2ccc(OC)c(OC)c2)cc1OC [Compound C0049]	106.6%	81.0%	210.0%	–	–	–
CC(=O)N1CCSC12CCN(S(=O)(=O)c1ccc([N+](=O)[O-])cc1)CC2 [Compound C0050]	–	–	–	110.3%	59.0%	127.6%
CC(O)c1ccc(S(=O)(=O)N2CCC3(CC2)OCCN3S(=O)(=O)c2ccc(C(C)O)cc2)cc1 (stereo not drawn) [Compound C0051]	94.4%	55.9%	170.4%	–	–	–
CC(=O)c1ccc(C(=O)N2CCC3(CC2)OCCN3S(=O)(=O)c2ccc(C(C)=O)cc2)cc1 [Compound C0052]	108.4%	42.7%	162.8%	–	–	–
CC(=O)c1ccc(C(=O)N2CCOC23CCN(S(=O)(=O)c2ccc(C(C)=O)cc2)CC3)cc1 [Compound C0053]	104.0%	93.1%	157.2%	–	–	–
CC(=O)c1ccc(C(=O)N2CCC3(CC2)OCCN3C(=O)c2ccc(C(C)=O)cc2)cc1 [Compound C0054]	68.2%	43.5%	127.0%	–	–	–
CC(=O)c1ccc(S(=O)(=O)N2CCC3(CC2)OCCN3S(C)(=O)=O)cc1 [Compound C0056]	–	–	–	98.6%	86.3%	193.4%
CC(=O)c1ccc(S(=O)(=O)N2CCC3(CC2)NCCS3)cc1 [Compound C0060]	–	–	–	166.5%	143.9%	218.9%
COc1cc(S(=O)(=O)N2CCC3(CC2)OCCN3S(=O)(=O)c2cc(OC)c(OC)c(OC)c2)cc(OC)c1OC [Compound C0062]	127.8%	59.8%	310.5%	–	–	–
CC(=O)c1ccc(S(=O)(=O)N2CCC3(CC2)NC(=O)CN3S(=O)(=O)c2ccc(C(C)=O)cc2)cc1 [Compound C0064]	213.8%	38.1%	349.6%	–	–	–
CC(=O)c1ccc(S(=O)(=O)N2CCC3(CC2)OC(CN(C)C)CN3S(=O)(=O)c2ccc(C(C)=O)cc2)cc1 (stereo not drawn) [Compound C0065]	198.3%	47.7%	279.5%	–	–	–
O=S(=O)(c1ccc(Cl)cc1)N1CCC2(CC1)OCCN2S(=O)(=O)c1ccc(Cl)cc1 [Compound C0067]	142.7%	33.5%	179.0%	–	–	–
O=S(=O)(c1ccc(Br)cc1C(F)(F)F)N1CCC2(CC1)OCCN2S(=O)(=O)c1ccc(Br)cc1C(F)(F)F [Compound C0068]	107.2%	165.9%	263.1%	–	–	–
O=S(=O)(c1ccc(Br)cc1Br)N1CCC2(CC1)OCCN2S(=O)(=O)c1ccc(Br)cc1Br [Compound C0070]	165.6%	114.2%	210.8%	–	–	–
O=S(=O)(c1ccc(C(F)(F)F)cc1Br)N1CCC2(CC1)OCCN2S(=O)(=O)c1ccc(C(F)(F)F)cc1Br [Compound C0071]	276.3%	177.1%	355.3%	–	–	–
O=S(=O)(c1ccc(F)c(F)c1)N1CCC2(CC1)OCCN2S(=O)(=O)c1ccc(F)c(F)c1 [Compound C0072]	172.7%	67.1%	259.1%	–	–	–

SMILES	MOR agonist activity ([35S]GTPgS binding to Gao) [1]	MOR agonist activity ([35S]GTPgS binding to Gao) (1 μM + BFNA, Series C-1 table)	MOR agonist activity ([35S]GTPgS binding to Gao) [2]	MOR agonist activity ([35S]GTPgS binding to Gao) [3]	MOR agonist activity ([35S]GTPgS binding to Gao) (1 μM + BFNA, Series C-2 table)	MOR agonist activity ([35S]GTPgS binding to Gao) [4]
O=S(=O)(c1ccc(Br)c(C(F)(F)F)c1)N1CCC2(CC1)OCCN2S(=O)(=O)c1ccc(Br)c(C(F)(F)F)c1 [Compound C0077]	192.7%	136.7%	265.4%	–	–	–
O=S(=O)(c1ccc(Br)cc1F)N1CCC2(CC1)OCCN2S(=O)(=O)c1ccc(Br)cc1F [Compound C0078]	138.1%	170.7%	236.6%	–	–	–
CC(=O)c1ccc(S(=O)(=O)N2CCC3(CC2)OCC(CCCCN(C)C)N3S(=O)(=O)c2ccc(C(C)=O)cc2)cc1 (stereo not drawn) [Compound C0080]	187.9%	167.1%	205.4%	–	–	–
CC(=O)c1ccc(S(=O)(=O)N2CCC3(CC2)NCC(=O)N3Cc2ccccc2)cc1 [Compound C0082M]	228.1%	97.6%	338.4%	–	–	–
CC(=O)c1ccc(S(=O)(=O)N2CCC3(CC2)NC(=O)C(Cc2cnc[nH]2)N3S(=O)(=O)c2ccc(C(C)=O)cc2)cc1 (stereo not drawn) [Compound C0084M]	163.1%	133.2%	255.5%	–	–	–
CC(=O)c1ccc(S(=O)(=O)N2CCC3(CC2)NC(=O)CN3Cc2ccccc2)cc1 [Compound C0085M]	211.6%	43.7%	246.2%	–	–	–
CC(=O)c1ccc(S(=O)(=O)N2CC(=O)NC23CCNCC3)cc1 [Compound C0086M]	–	–	–	206.8%	152.3%	265.3%
CC(=O)c1ccc(S(=O)(=O)N2CCC3(CC2)NC(=O)CO3)cc1 [Compound C0087M]	–	–	–	262.8%	142.5%	329.6%
COc1ccc(S(=O)(=O)N2CCOC23CCN(C)CC3)cc1 [Compound C0088M]	–	–	–	276.3%	177.1%	355.3%
CCN1CCC2(CC1)OCCN2S(=O)(=O)c1ccc(OC)cc1 [Compound C0089M]	–	–	–	234.5%	81.9%	295.3%
COc1ccc(S(=O)(=O)N2CCOC23CCN(CC2CC2)CC3)cc1 [Compound C0090M]	–	–	–	237.0%	41.0%	341.0%
C=CCN1CCC2(CC1)OCCN2S(=O)(=O)c1ccc(OC)cc1 [Compound C0091M]	–	–	–	207.9%	80.8%	274.4%
CC(=O)c1ccc(S(=O)(=O)N2CCOC23CCN(C)CC3)cc1 [Compound C0093M]	–	–	–	140.0%	44.0%	211.8%
CCN1CCC2(CC1)OCCN2S(=O)(=O)c1ccc(C(C)=O)cc1 [Compound C0094M]	–	–	–	172.5%	115.3%	263.5%
CC(=O)c1ccc(S(=O)(=O)N2CCOC23CCN(CC2CC2)CC3)cc1 [Compound C0095M]	–	–	–	189.1%	107.7%	224.6%
